The source made the active and inactive calls.
Experiments:
[1] = target: T1, Replicative DNA helicase DnaB (Mycobacterium tuberculosis, UniProt P9WMR3); experiment: DnaB intein splicing inhibitors, dose response, biochemical, cell-free fluorescence (AID 449749); type: functional
T1 sequence (P9WMR3 whole entry): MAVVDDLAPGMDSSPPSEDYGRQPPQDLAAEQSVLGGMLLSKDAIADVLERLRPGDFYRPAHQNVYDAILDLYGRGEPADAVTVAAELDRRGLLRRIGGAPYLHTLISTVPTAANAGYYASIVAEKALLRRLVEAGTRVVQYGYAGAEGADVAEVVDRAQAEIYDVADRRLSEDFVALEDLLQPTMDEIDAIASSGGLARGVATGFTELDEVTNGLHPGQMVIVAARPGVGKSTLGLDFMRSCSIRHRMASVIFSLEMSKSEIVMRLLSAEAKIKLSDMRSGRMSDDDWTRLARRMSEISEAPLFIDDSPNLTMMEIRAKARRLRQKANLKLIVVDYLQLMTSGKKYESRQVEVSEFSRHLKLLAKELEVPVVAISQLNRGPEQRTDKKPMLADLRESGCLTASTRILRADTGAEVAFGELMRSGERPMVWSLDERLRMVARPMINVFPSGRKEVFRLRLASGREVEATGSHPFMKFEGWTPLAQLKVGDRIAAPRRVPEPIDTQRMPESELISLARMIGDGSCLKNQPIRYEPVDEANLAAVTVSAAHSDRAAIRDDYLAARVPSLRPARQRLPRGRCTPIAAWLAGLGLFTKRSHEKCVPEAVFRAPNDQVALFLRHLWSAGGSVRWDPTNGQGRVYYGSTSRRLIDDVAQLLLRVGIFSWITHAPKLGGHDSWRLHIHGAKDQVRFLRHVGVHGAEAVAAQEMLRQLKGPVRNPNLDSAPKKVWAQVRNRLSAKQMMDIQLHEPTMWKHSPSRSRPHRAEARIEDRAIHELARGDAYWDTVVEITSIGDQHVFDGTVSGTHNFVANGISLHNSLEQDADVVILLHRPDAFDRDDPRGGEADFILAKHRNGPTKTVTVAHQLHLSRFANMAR

Beta Lactamase [2] = target: T2, Beta Lactamase (Pseudomonas aeruginosa, UniProt Q932Y6); experiment: BLA reporter interference, concentration series – BLA reporter cells, FRET fluorescence, artefact control for NOD2-RIPK2 interaction inhibitor project, dose response (AID 651552); type: functional, cell-based
T2 sequence (Q932Y6 whole entry): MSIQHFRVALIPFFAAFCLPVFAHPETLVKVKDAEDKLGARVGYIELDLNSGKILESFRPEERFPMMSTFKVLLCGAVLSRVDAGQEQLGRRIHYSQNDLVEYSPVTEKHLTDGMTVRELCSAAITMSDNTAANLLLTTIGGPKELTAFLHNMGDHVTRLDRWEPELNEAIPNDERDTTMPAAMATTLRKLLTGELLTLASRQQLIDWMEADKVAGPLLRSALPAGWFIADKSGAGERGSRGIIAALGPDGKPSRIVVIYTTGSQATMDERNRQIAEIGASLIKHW

Fatty acid synthase [3] = target: T3, Fatty acid synthase (Homo sapiens, UniProt P49327); experiment: inhibition of human FAS-TE enzyme activity – biochemical, kinetic fluorescence intensity, dose response (AID 624326); type: functional;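 note: rate of fluorescence rise from hydrolysis of a fluorogenic O-methyl fluorescein ester substrate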
T3 sequence (P49327 whole entry): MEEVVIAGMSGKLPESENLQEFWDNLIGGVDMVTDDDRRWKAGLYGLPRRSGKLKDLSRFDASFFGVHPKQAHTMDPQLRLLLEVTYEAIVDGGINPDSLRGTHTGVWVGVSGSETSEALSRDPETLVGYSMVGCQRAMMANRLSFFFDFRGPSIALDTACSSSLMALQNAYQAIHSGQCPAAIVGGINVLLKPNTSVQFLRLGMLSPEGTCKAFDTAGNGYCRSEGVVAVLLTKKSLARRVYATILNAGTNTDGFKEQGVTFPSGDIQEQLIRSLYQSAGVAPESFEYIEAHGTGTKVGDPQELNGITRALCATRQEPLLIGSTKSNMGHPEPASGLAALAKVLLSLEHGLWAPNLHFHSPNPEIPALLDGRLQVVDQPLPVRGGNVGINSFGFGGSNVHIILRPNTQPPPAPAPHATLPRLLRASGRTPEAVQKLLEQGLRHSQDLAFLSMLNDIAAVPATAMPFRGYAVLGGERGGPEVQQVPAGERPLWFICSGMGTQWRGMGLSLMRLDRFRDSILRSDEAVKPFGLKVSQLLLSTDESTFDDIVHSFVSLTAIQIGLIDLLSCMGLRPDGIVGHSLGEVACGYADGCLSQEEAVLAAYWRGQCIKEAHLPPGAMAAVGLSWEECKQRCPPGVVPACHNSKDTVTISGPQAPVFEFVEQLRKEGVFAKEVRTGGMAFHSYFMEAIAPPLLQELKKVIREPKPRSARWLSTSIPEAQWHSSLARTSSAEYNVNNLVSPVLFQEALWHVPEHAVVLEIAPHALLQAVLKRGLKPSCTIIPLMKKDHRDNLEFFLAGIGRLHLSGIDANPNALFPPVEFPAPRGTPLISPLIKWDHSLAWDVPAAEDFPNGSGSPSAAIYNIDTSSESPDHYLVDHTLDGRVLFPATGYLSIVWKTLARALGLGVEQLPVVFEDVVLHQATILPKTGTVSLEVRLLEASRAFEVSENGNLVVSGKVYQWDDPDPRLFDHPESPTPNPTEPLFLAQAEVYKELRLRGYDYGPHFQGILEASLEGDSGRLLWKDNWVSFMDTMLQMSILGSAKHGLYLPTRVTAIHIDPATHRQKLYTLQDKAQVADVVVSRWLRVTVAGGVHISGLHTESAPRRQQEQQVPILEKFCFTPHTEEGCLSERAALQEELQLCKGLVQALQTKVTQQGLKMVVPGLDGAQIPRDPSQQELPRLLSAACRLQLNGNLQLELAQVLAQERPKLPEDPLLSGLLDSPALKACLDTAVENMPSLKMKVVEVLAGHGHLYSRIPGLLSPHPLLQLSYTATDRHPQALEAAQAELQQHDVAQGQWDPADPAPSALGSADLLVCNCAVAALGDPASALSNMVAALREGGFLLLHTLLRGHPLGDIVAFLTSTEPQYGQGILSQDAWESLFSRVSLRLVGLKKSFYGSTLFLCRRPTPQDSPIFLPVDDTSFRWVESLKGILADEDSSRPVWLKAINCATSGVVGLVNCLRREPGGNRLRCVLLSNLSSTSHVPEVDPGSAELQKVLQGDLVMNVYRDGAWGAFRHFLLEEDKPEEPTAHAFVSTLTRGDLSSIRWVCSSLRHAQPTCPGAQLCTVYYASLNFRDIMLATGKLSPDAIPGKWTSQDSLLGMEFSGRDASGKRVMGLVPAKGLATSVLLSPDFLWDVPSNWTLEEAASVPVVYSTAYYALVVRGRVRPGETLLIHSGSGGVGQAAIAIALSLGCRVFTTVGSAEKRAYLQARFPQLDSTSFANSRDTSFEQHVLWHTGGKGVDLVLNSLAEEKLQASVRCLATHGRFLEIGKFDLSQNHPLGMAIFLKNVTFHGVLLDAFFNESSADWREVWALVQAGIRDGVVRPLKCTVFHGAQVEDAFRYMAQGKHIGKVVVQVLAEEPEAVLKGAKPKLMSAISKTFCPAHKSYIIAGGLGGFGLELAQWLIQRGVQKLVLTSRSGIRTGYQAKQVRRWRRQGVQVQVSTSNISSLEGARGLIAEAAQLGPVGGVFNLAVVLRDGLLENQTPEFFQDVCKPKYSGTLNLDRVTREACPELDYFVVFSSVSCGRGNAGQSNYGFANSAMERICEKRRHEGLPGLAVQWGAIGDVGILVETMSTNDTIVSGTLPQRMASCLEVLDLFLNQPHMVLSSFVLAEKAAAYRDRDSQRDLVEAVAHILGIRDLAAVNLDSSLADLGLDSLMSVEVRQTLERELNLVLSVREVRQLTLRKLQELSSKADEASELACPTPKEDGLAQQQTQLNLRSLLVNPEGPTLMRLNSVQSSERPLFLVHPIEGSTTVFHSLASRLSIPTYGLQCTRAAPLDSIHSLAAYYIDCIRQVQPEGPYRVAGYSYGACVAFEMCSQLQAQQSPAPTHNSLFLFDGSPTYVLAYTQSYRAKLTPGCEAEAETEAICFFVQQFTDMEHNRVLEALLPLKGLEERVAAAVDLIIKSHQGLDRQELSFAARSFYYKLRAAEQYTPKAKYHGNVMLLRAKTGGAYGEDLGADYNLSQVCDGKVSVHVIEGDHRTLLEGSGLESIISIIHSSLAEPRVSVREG

Protein RecA = target: T4, Protein RecA (Mycobacterium tuberculosis, UniProt P9WHJ3); experiment: Fluorescence Cell-Free Homogeneous Dose Retest to Identify Inhibitors of RecA-Intein Splicing Activity. [Related pubchem assays (depositor defined):AID2097, AID2223, AID489010, AID492950]; type: functional
T4 sequence (P9WHJ3 whole entry): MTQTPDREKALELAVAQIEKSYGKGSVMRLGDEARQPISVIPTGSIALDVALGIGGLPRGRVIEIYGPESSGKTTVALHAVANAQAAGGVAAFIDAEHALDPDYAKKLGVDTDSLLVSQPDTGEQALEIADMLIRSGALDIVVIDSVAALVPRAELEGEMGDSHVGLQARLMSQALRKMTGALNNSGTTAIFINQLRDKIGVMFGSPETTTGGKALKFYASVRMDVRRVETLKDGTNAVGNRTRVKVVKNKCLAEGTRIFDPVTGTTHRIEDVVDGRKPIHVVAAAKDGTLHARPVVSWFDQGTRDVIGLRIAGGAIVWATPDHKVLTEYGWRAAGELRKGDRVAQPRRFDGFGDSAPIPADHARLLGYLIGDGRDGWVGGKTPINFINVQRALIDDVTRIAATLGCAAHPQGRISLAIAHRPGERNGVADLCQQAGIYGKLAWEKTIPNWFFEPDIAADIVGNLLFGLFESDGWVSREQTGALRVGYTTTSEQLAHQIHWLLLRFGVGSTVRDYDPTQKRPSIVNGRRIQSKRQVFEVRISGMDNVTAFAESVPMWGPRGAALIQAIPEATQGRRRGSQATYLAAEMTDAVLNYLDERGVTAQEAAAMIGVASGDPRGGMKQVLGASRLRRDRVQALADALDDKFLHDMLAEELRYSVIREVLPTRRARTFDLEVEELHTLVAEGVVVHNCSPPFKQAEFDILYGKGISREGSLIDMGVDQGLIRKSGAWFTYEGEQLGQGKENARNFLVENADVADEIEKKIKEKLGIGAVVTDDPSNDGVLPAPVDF

[4] = Fluorescence-based cell-based high throughput dose response assay for inhibitors of the interaction of nucleotide-binding oligomerization domain containing 2 (NOD2) and the receptor-interacting serine-threonine kinase 2 (RIPK2).; type: functional; details: Homo sapiens
BJ [5] = experiment: BJ-TERT-LT-ST fibroblast viability loss – cell-based, RAS-independent, luminescence, dose response (AID 1935); type: functional; details: Homo sapiens;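 note: BJ fibroblasts immortalized with TERT plus LT and ST oncogenes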
[6] = target: Luciferin 4-monooxygenase (Photinus pyralis, UniProt P08659); experiment: inhibition of purified Photinus pyralis luciferase – biochemical, luminescence, dose response (AID 1891)
Luciferin 4-monooxygenase, sequence (P08659 whole entry): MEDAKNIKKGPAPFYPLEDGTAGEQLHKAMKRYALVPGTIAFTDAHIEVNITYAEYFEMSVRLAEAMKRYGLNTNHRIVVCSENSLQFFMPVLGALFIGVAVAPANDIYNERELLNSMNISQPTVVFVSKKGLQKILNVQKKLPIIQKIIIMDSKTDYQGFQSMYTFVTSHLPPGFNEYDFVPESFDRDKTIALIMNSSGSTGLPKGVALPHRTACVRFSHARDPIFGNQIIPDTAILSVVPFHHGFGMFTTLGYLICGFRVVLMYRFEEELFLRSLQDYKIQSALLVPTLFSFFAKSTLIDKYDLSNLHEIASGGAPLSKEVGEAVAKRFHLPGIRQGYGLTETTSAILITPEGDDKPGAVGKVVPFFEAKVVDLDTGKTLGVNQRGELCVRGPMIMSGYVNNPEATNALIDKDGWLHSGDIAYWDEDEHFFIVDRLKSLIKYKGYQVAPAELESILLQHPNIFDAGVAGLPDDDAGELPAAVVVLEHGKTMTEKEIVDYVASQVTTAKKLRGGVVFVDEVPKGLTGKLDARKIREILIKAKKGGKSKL

[7] = Luminescence Cell-Based Dose Confirmation HTS to Identify Inhibitors of Platelet Dense Granule Release. [Related pubchem assays: 1663 (Primary HTS), 1678 (Summary of Project)]; type: functional
[8] = DRD fibroblast viability loss – cell-based, non-viral oncogenic, luminescence, dose response (AID 1934); type: functional; details: Homo sapiens
INS1 = experiment: INS-1E survival protection against cytokine death – cell-based, luminescence, retest, dose response (AID 449756); type: functional; details: Rattus norvegicus;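 note: cell death triggered by IL-1 beta plus TNF-alpha plus IFN-gamma mixture; protective hits raise ATP signal compared with cytokine alone wells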
Large T antigen = Large T antigen (Simian virus 40, UniProt P03070); type: functional, Betapolyomavirus macacae;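 note: Confirmatory-stage PubChem screen for compounds that inhibit SV40 T antigen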
Beta Lactamase [9] = target: T2, Beta Lactamase; experiment: BLA reporter interference, concentration series – BLA reporter cells, FRET fluorescence, artefact control for TLR9-MyD88 binding inhibitor project, dose response (AID 588341); type: cell-based;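 note: cell based assay in CHO-K1 cells stably expressing beta-lactamase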
BJ [10] = experiment: growth inhibition of engineered Ras-driven BJ cells – cell-based, alamar blue fluorescence, cherrypicked samples, dose response (AID 2631); type: functional; details: Homo sapiens;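 note: confirmatory dose-response assay in RAS-dependent BJ fibroblasts engineered with TERT, LT and ST, with cytotoxicity read by fluorescence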
Vero = experiment: viability of Vero cells under compound – cytotoxicity control for flavivirus capping enzyme inhibitors (AID 588742); type: functional; details: Chlorocebus sabaeus
BJ [11] = experiment: BJ-TERT fibroblast viability loss – cell-based, RAS-independent, luminescence, dose response (AID 1933); type: functional; details: Homo sapiens
BJ [12] = experiment: cells; type: functional, cell-based; details: Homo sapiens
Fatty acid synthase [13] = target: T3, Fatty acid synthase; experiment: inhibition of human FAS-TE enzyme activity – biochemical, endpoint fluorescence intensity, uHTS hits, dose response (AID 624327); type: functional;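 note: fluorescence from hydrolysis of an O-methyl fluorescein acyl ester substrate by the enzyme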
Genome polyprotein = Genome polyprotein (dengue virus type 2, UniProt P29990); experiment: flavivirus cap methylation enzyme inhibition – biochemical, confirmation dose response, primary screen (AID 588689); type: functional
Genome polyprotein, sequence (P29990 2492-3391 limits assumed): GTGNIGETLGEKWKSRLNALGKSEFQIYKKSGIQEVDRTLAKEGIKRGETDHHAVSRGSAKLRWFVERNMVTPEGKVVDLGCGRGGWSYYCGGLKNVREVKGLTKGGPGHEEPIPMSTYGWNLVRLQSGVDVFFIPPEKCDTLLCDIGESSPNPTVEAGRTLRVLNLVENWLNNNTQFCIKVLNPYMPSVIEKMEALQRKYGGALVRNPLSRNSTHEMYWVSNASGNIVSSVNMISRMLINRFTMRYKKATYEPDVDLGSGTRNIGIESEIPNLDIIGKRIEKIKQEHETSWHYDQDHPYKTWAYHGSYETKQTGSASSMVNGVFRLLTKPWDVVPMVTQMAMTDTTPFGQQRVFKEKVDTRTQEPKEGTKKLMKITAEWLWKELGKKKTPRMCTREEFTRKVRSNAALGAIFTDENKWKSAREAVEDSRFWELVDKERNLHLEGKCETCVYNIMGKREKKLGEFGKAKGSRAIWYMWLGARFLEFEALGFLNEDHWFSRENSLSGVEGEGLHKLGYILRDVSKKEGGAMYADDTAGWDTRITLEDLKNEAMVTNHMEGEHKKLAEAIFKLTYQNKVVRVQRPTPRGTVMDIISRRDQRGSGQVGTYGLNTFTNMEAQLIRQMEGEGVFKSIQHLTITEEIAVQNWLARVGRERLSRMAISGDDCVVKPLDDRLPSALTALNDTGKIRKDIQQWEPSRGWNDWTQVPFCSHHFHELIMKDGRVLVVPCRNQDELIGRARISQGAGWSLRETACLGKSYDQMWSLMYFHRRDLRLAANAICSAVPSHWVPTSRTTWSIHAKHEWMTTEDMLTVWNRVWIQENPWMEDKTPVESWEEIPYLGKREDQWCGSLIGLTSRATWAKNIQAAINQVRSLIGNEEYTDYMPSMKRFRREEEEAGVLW

CHO = CHO cell viability loss, potency – luminescence, cytotoxicity control for TLR9-MyD88 binding inhibitor project, dose response (AID 588339); type: functional, cell-based, hamster; details: Cricetulus griseus;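 note: CHO cells stably coexpressing TLR9 and MyD88 fusions from primary screen; compound exposure lasted 48 hours before viability readout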
Orexin receptor type 2 [14] = target: T5, Orexin receptor type 2 (Homo sapiens, UniProt O43614); experiment: Counterscreen assay for antagonists of the orexin 1 receptor (OX1R; HCRTR1): Fluorescence-based cell-based dose response assay for antagonists of the orexin 2 receptor (OX2R; HCRTR2), run by assay provider.; type: functional
T5 sequence (O43614 whole entry): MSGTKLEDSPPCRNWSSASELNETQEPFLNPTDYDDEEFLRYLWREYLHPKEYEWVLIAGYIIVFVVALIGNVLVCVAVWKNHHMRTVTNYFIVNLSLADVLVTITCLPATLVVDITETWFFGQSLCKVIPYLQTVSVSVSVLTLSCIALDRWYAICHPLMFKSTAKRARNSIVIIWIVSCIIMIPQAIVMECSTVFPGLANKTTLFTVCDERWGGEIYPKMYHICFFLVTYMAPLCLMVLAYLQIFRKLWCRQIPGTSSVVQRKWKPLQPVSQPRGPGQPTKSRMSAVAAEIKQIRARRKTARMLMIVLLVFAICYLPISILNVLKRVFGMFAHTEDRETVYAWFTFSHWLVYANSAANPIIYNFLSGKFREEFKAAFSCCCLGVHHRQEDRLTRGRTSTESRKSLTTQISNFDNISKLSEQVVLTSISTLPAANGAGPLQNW

Orexin receptor type 2 [15] = target: T5, Orexin receptor type 2; experiment: Counterscreen assay for antagonists of the orexin 1 receptor (OX1R; HCRTR1): Homogeneous Time Resolved Fluorescence (HTRF)-based cell-based dose response assay for antagonists of the orexin 2 receptor (OX2R; HCRTR2), run by assay provider.; type: functional
[16] = viability of PTEN-deleted HCT116 cells – cell-based, HCT116 PTEN knockout, dose response (AID 1047); type: functional;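 note: HCT116 colon tumor cells with PTEN knocked out; cells exposed to compound for 60 hours before readout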
[17] = viability of HCT116 lacking mutant beta-catenin – cell-based, human colon tumor, dose response (AID 1045); type: functional;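 note: HCT116 colon tumor cells with beta catenin knocked out; cells exposed to compound for 60 hours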
CHO-K1 = experiment: Counterscreen for antagonists of the orexin 1 receptor (OX1R; HCRTR1): Homogeneous time resolved fluorescence (HTRF)-based cell-based dose response assay to identify antagonists of the parental CHO-K1 cell line. [Related pubchem assays (depositor defined):AID434989, AID435008, AID463079, AID485270, AID492963, AID492964, AID492965, AID493232, AID504699, AID504701]; type: functional; details: Cricetulus griseus;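 note: potency for inhibition of ATP-stimulated IP1 production as antagonists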
[18] = Counterscreen for antagonists of the orexin 1 receptor (OX1R; HCRTR1): Fluorescence-based cell-based high throughput dose response assay to identify antagonists of the parental CHO cell line. [Related pubchem assays (depositor defined):AID434989, AID435008, AID463079, AID485270, AID492963, AID492964, AID492965, AID493232, AID504699, AID504701]; type: functional
[19] = target: T6, Orexin/Hypocretin receptor type 1 (Homo sapiens, UniProt O43613); experiment: Fluorescence-based cell-based high throughput dose response assay for antagonists of the orexin 1 receptor (OX1R; HCRTR1). [Related pubchem assays (depositor defined):AID434989, AID435008, AID463079, AID485270, AID492963, AID492964, AID492965, AID493232, AID504717, AID504718]; type: functional
T6 sequence (O43613 whole entry): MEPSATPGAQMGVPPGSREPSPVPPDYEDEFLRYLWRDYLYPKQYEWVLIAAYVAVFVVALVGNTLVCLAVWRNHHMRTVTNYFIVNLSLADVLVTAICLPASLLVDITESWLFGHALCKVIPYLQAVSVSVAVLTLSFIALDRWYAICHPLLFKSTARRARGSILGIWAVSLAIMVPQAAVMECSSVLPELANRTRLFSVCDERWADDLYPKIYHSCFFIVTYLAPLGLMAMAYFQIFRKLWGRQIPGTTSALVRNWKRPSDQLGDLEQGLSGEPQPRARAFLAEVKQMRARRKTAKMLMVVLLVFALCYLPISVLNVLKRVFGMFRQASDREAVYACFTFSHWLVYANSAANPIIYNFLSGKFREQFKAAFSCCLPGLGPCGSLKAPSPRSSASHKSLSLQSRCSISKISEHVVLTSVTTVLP

[20] = target: T6, Orexin/Hypocretin receptor type 1; experiment: Homogeneous Time Resolved Fluorescence (HTRF)-based cell-based high throughput dose response assay for antagonists of the orexin 1 receptor (OX1R; HCRTR1). [Related pubchem assays (depositor defined):AID434989, AID435008, AID463079, AID485270, AID492963, AID492964, AID492965, AID493232, AID504717, AID504718]; type: functional
[21] = target: 26S proteasome non-ATPase regulatory subunit 14 (Homo sapiens, UniProt O00487); experiment: inhibition of proteasome subunit RPN11 – biochemical, fluorescence polarization, uHTS hits, confirmation (AID 602368); type: functional
26S proteasome non-ATPase regulatory subunit 14, sequence (O00487 whole entry): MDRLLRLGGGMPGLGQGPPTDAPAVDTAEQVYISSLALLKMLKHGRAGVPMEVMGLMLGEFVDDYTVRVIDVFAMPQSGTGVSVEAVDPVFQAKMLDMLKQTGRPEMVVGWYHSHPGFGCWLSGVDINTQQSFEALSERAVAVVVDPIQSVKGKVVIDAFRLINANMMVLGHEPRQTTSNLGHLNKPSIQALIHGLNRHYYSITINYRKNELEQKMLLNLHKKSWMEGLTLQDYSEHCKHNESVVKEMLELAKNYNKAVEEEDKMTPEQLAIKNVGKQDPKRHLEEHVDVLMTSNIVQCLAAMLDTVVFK

[22] = target: 72 kDa type IV collagenase (Homo sapiens, UniProt P08253); experiment: Dose Response validation of uHTS RPN11 inhibitor hits using a MMP-2 Fluorescence assay.; type: functional
Prothrombin = Prothrombin (Bos taurus, UniProt P00735); experiment: thrombin protease inhibitors – biochemical, fluorescence polarization, uHTS hits, dose response (AID 602369); type: functional
[23] = target: DNA (cytosine-5)-methyltransferase 1 (Homo sapiens, UniProt P26358); experiment: inhibition of DNA methylation by DNMT1 – biochemical, fluorescent molecular beacon, confirmation (AID 602386); type: functional

O=[N+]([O-])c1c(Nc2ccc(O)cc2)cc(Cl)c2nonc12
inconclusive: EC50 (BJ [5]) 3.96 µM | EC50 (BJ [11]) 1.92 µM | EC50 (BJ [12]) 5.3 µM
active: AC50 [1] 1.1 µM | IC50 (Beta Lactamase [2]) 5.98 µM | IC50 (Fatty acid synthase [3]) 4.41 µM | EC50 (Protein RecA) 0.926 µM | IC50 [4] 0.969 µM | EC50 [7] 4.2 µM | EC50 [8] 2.66 µM | AC50 (INS1) 5.23 µM | IC50 (Large T antigen) 12.3 µM | IC50 (Beta Lactamase [9]) 6.38 µM | EC50 (BJ [10]) 0.501 µM | CC50 (Vero) 16.9 µM | IC50 (Fatty acid synthase [13]) 5.26 µM | IC50 (Genome polyprotein) 10.4 µM | IC50 (CHO) 1.13 µM
> 112 µM (not active): EC50 [6]

O=C(c1ccco1)N1CCCC(c2nc(-c3ccc(S(=O)(=O)NCc4ccccc4)cc3)no2)C1 (stereo not drawn)
active: IC50 (Orexin receptor type 2 [15]) 5.51 µM | EC50 [16] 21.2 µM | EC50 [17] 18.6 µM
inactive: IC50 (Orexin receptor type 2 [14]) 39.3 µM

Cc1ccc(NC2CCCN(C(=O)c3cccc(-c4ncc[nH]4)c3)C2)cc1C (stereo not drawn)
active: IC50 [19] 2.99 µM | IC50 (Orexin receptor type 2 [15]) 4.48 µM | IC50 [20] 0.175 µM
inactive: IC50 (Orexin receptor type 2 [14]) 17.1 µM | IC50 (CHO-K1) > 66.2 µM | IC50 [18] > 49.7 µM

O=C(O)CCCCCN1C(=O)/C(=C/c2cn(-c3ccccc3)nc2-c2cccs2)SC1=S
active: IC50 [21] 7.92 µM | IC50 [22] 10.3 µM | IC50 (Prothrombin) 29 µM | IC50 [23] 5.56 µM

— ChEMBL document CHEMBL1201862, “PubChem BioAssay data set” (2004)
